According to US4678783A, “Substituted isoquinolinesulfonyl compounds” (Asahi Kasei Kogyo Kabushiki Kaisha, priority 1984, dated 1987):

What was measured:
Acute Toxicity = details: mouse, in vivo; ddY male mice
Experimental: Acute toxicity of the compounds of the present invention was determined according to the method given below, and the results are shown in Table 15. […] It is known from the results that the acute toxicity of the compounds of the present invention is satisfactorily low.
Using ddY male mice, acute toxicity of the compounds of the present invention was examined according to the method proposed by K. Takagi et al. (K. Takagi and H. Ozawa, "Experimental Techniques in Pharmacology," p200-206 (1960), NANZANDO CO., LTD.).
Acute toxicity test of the compounds of the present invention was effected according to the method as mentioned hereinbefore.

[1] = system: male spontaneously hypertensive rats (SHR); assay: Reduction of Blood Pressure (systolic, tail plethysmographic method, oral); type: in vivo, rat (SHR, Wister Kyoto)
Experimental: Male spontaneously hypertensive rats (SHR, Wister Kyoto) weighing 300 to 350 g were used. Systolic blood pressure was measured indirectly by the tail plethysmographic method in conscious SHR, just prior to, and 1, 2, 4 and 6 hours after oral administration of test drugs. Test drugs, dissolved in deionized water, were administered orally in a volume of 10 ml-solution/kg-rat. Reduction in systolic blood pressure (ΔP, mmHg) was calculated by substracting a systolic blood pressure after administration from that just prior to administration.
Effect of the compounds of the present invention on reduction of blood pressure was examined according to the method as mentioned hereinbefore.

vertebral artery = assay: Blood Flow Volume Increase of Vertebral Artery; type: in vivo, Mongrel dogs; details: intravenous, anesthetized dogs
Experimental: (§1) A plethysmographic probe (manufactured and sold by NIHON KODEN CO., LTD.) was mounted on the femoral and vertebral arteries, and blood flow volume was measured by means of a electromagnetic blood flowmeter (type:MF-27, manufactured and sold by NIHON KODEN CO., LTD.). Under these conditions, compounds of the present invention were intravenously administered through a polyethylene tube inserted to a femoral veinlet, and change in blood flow volume was measured by means of the electromagnetic blood flowmeter.
(§2) Effect of the compounds of the present invention on dilation of femoral and vertebral arteries was examined according to the method as mentioned hereinbefore.

[2] = system: mesenteric artery of a rabbit; assay: Relaxation of Mesenteric Artery (KCl-contracted spiral strip); parameters: species or system rabbit of Japanese local variety; details: Oryctolagus cuniculus; concentration of the hydrochloride attaining 50% of complete relaxation; rabbit mesenteric artery contracted with KCl; read-out: ED50 (the source's name)
Experimental: A rabbit of Japanese local variety weighing about 3 kg was subjected to blood-letting to death. Then, abdomen of the rabbit was dissected to pick up a mesenteric artery. […] Thus, the shrinkage and relaxation of the artery was ready to be measured as a load on the transducer. To the organ bath, KCl was added in an amount which makes the artery shrink at a half length that in 15 to 20 mM aqueous solution. Then, hydrochlorides of the compounds of the present invention were added to the organ bath to observe relaxation effect on the artery.
Effect of the compounds of the present invention on relaxation of mesenteric artery was examined according to the method as mentioned hereinbefore.

femoral artery = assay: Blood Flow Volume Increase of Femoral Artery; type: in vivo, Mongrel dogs; details: intravenous, anesthetized dogs
Experimental: as §1, §2

| Structure (SMILES) | ΔPmax (maximally reduced blood pressure) ([1]; 100 mg/kg) [mmHg] | EC50 [2] [µM] | other results |
| --- | --- | --- | --- |
| CC1CN(S(=O)(=O)c2cccc3cnccc23)CCCN1 (centres unmarked) [(3), 1-(5-isoquinolinesulfonyl)-3-methylhomopiperazine] | 65 | 1.6 | LD50 (Acute Toxicity): 120 mg/kg; Increase in vertebral artery blood flow (vertebral artery; 0.3 mg/kg): 78%; Increase in femoral artery blood flow (femoral artery; 0.3 mg/kg): 35% |
| O=S(=O)(c1cccc2cnccc12)N1CCNCC(Cc2ccccc2)C1 (centres unmarked) [Compound (18), 1-(5-isoquinolinesulfonyl)-6-benzylhomopiperazine] | 43 | 10 | LD50 (Acute Toxicity): 197 mg/kg; Increase in vertebral artery blood flow (vertebral artery; 0.3 mg/kg): 110%; Increase in femoral artery blood flow (femoral artery; 0.3 mg/kg): 45% |
| N=C(N)NCCNS(=O)(=O)c1cccc2c(Cl)nccc12 [Compound (31), N-(2-guanidinoethyl)-1-chloro-5-isoquinolinesulfonamide] | 40 | 2 | LD50 (Acute Toxicity): 160 mg/kg |
| NCCCCNS(=O)(=O)c1cccc2c(O)nccc12 [Compound (48), N-(4-aminobutyl)-1-hydroxy-5-isoquinolinesulfonamide] | 51 | 15 | – |
| CC(CN)NS(=O)(=O)c1cccc2c(O)nccc12 (centres unmarked) [Compound (49), N-(2-amino-1-methylethyl)-1-hydroxy-5-isoquinolinesulfonamide] | – | 14 | ΔPmax (maximally reduced blood pressure) ([1]; 50 mg/kg): 33 mmHg |
| CCCCC(CN)NS(=O)(=O)c1cccc2c(O)nccc12 (centres unmarked) [Compound (50), N-(1-aminomethylpentyl)-1-hydroxyl-5-isoquinolinesulfonamide] | – | 7 | ΔPmax (maximally reduced blood pressure) ([1]; 50 mg/kg): 28 mmHg |
| CC(C)C(N)CNS(=O)(=O)c1cccc2c(O)nccc12 (centres unmarked) [Compound (51), N-(2-amino-3-methylbutyl)-1-hydroxy-5-isoquinolinesulfonamide] | – | 20 | ΔPmax (maximally reduced blood pressure) ([1]; 50 mg/kg): 71 mmHg |
| CCCCN(CCCC)CCCNS(=O)(=O)c1cccc2c(O)nccc12 [Compound (52), N-(3-di-n-butylaminopropyl)-1-hydroxy-5-isoquinolinesulfonamide] | – | 21 | ΔPmax (maximally reduced blood pressure) ([1]; 50 mg/kg): 65 mmHg |
| CN(CCNS(=O)(=O)c1cccc2c(O)nccc12)C1CCCCC1 [Compound (53), N-[2-(N-cyclohexyl-N-methylamino)ethyl]-1-hydroxy-5-isoquinolinesulfonamide] | – | 17 | ΔPmax (maximally reduced blood pressure) ([1]; 50 mg/kg): 56 mmHg |
| N=C(N)NCCNS(=O)(=O)c1cccc2c(O)nccc12 [Compound (54), N-(2-guanidinoethyl)-1-hydroxy-5-isoquinolinesulfonamide] | 40 | 18 | LD50 (Acute Toxicity): 135 mg/kg |
| N=C(N)NCCCCNS(=O)(=O)c1cccc2c(O)nccc12 [Compound (55), N-(4-guanidinobutyl)-1-hydroxy-5-isoquinolinesulfonamide] | 38 | 13 | – |
| CC(CNC(=N)N)NS(=O)(=O)c1cccc2c(O)nccc12 (centres unmarked) [Compound (56), N-(2-guanidino-1-methylethyl)-1-hydroxy-5-isoquinolinesulfonamide] | 45 | 14 | – |
| CCCCC(CNC(=N)N)NS(=O)(=O)c1cccc2c(O)nccc12 (centres unmarked) [Compound (57), N-(1-guanidinomethylpentyl)-1-hydroxy-5-isoquinolinesulfonamide] | 38 | 11 | – |
| CC(C)C(CNS(=O)(=O)c1cccc2c(O)nccc12)NC(=N)N (centres unmarked) [Compound (58), N-(2-guanidino-3-methylbutyl)-1-hydroxy-5-isoquinolinesulfonamide] | 41 | 15 | – |
| CC(CNC(=N)N)CNS(=O)(=O)c1cccc2c(O)nccc12 (centres unmarked) [Compound (59), N-(3-guanidino-2-methylpropyl)-1-hydroxy-5-isoquinolinesulfonamide] | 52 | 21 | – |
| CC(C)(CCNS(=O)(=O)c1cccc2c(O)nccc12)NC(=N)N [Compound (60), N-(3-guanidino-3-methylbutyl)-1-hydroxy-5-isoquinolinesulfonamide] | 61 | 23 | – |
| CC1CN(S(=O)(=O)c2cccc3c(O)nccc23)CCN1 (centres unmarked) [Compound (61), 1-(1-hydroxy-5-isoquinolinesulfonyl)-3-methylpiperazine] | 48 | 17 | – |
| CCC1CN(S(=O)(=O)c2cccc3c(O)nccc23)CCN1 (centres unmarked) [Compound (62), 1-(1-hydroxy-5-isoquinolinesulfonyl)-3-ethylpiperazine] | 36 | 25 | – |
| CC(C)CC1CN(S(=O)(=O)c2cccc3c(O)nccc23)CCN1 (centres unmarked) [Compound (63), 1-(1-hydroxy-5-isoquinolinesulfonyl)-3-isobutylpiperazine] | 48 | 18 | – |
| CC1CN(S(=O)(=O)c2cccc3c(O)nccc23)C(C)CN1 (centres unmarked) [Compound (64), 1-(1-hydroxy-5-isoquinolinesulfonyl)-2,5-dimethylpiperazine] | 65 | 21 | – |
| CN1CCN(S(=O)(=O)c2cccc3c(O)nccc23)CC1 [Compound (65), 1-(1-hydroxy-5-isoquinolinesulfonyl)-4-methylpiperazine] | 53 | 25 | – |
| N=C(N)N1CCN(S(=O)(=O)c2cccc3c(O)nccc23)CC1 [Compound (66), 1-(1-hydroxy-5-isoquinolinesulfonyl)-4-amidinopiperazine] | 43 | 4 | – |
| N=C(N)N1CCCN(S(=O)(=O)c2cccc3c(O)nccc23)CC1 [Compound (67), 1-(1-hydroxy-5-isoquinolinesulfonyl)-4-amidinohomopiperazine] | 44 | 6 | – |
| CC1CN(C(=N)N)CCN1S(=O)(=O)c1cccc2c(O)nccc12 (centres unmarked) [Compound (68), 1-(1-hydroxy-5-isoquinolinesulfonyl)-4-amidino-2-methylpiperazine] | 48 | 9 | – |
| CC1CN(S(=O)(=O)c2cccc3c(O)nccc23)C(C)CN1C(=N)N (centres unmarked) [Compound (69), 1-(1-hydroxy-5-isoquinolinesulfonyl)-4-amidino-2,5-dimethylpiperazine] | 51 | 8 | – |
| CCCCCCNCCNS(=O)(=O)c1cccc2c(Cl)nccc12 [Compound (74), N-(2-hexylaminoethyl)-1-chloro-5-isoquinolinesulfonamide] | 45 | 2 | – |
| O=S(=O)(c1cccc2c(Cl)nccc12)N1CCCNCC1 [Compound (76), 1-(1-chloro-5-isoquinolinesulfonyl)homopiperazine] | 60 | 2 | – |
| CCCCCCNCCNS(=O)(=O)c1cccc2c(O)nccc12 [Compound (81), N-(2-hexylaminoethyl)-1-hydroxy-5-isoquinolinesulfonamide] | 54 | 6 | – |
| O=S(=O)(c1cccc2cnccc12)N1CCNCC1 [compound 2, reference compound] | 11 | – | LD50 (Acute Toxicity): 29 mg/kg; Increase in vertebral artery blood flow (vertebral artery; 0.3 mg/kg): 36%; Increase in vertebral artery blood flow (vertebral artery; 1 mg/kg): 98%; Increase in femoral artery blood flow (femoral artery; 0.3 mg/kg): 20%; Increase in femoral artery blood flow (femoral artery; 1 mg/kg): 69% |
| N=C(N)NCCNS(=O)(=O)c1cccc2cnccc12 [compound 4, reference compound] | – | – | LD50 (Acute Toxicity): 48 mg/kg |
